In patent US20010051167A1, “USE OF 17-ALPHA-ESTRADIOL FOR THE TREATMENT OF AGED OR SUNDAMAGED SKIN AND/OR SKIN ATROPHY” (priority 1997, published 2001):

Assays:
[1] = test system: UV-photodamaged dorsal trunk skin of albino hairless mice (Skh-1); assay: Dermal repair zone depth in UV-photodamaged hairless mouse skin after topical treatment; type: in vivo
Description: In one method, a deficit in connective tissue synthesis is induced by long-term exposure of mouse skin to ultraviolet (UV) radiation. […] The repair can be visualized as a region of new connective tissue which forms as a subepidermal band in the papillary dermis after topical retinoid treatment (Kligman LH, Chapter 10: Animal Models of Photodamage and Its Treatment, pp. 136-156, In: Photodamage, edited by B. A. Gilchrest, 1995, Blackwell Science, Cambridge, Mass.). The old malformed elastotic tissue, produced during UV exposure, is compressed by the retinoid-induced new connective tissue zone.
Connective tissue photodamage was induced in albino hairless mice (Skh-1) (six to eight weeks old) by exposure of dorsal trunk skin to UV from FS40 fluorescent tubes, three days per week (Monday, Wednesday, Friday) for ten weeks. The UV dose started with one minimal erythemal dose (MED) and was increased gradually to 4.5 MEDs by week 5 and then continued at 4.5 MEDs for five more weeks. At the beginning of week 11, mice were treated topically with 0.1 mL test material on the dorsal trunk skin, three times per week (Monday, Wednesday, Friday) for 6 to 10 weeks. At the end of treatment, dorsal skin was excised and placed in 10% buffered formalin. The specimens were embedded, sectioned and stained with Luna's aldehyde fuchsin for elastic fibers. The dermal repair zone, defined as the area from the epidermal-dermal junction to the top of the compressed elastotic material, was quantified by measuring the depth of the zones with an image analyzer. […]

[2] = test system: skin of albino hairless mice (Skh-1); assay: Estrogen-induced thickening of the skin (double skin-fold thickness); type: in vivo, mouse; conditions: Example 4, 3 days of topical treatment
Description: In the second method, topical estrogens increase the thickness of the entire skin by enhancing its water content. This is due to estrogen-stimulated increases in hyaluronic acid, which is a biomolecule that has an avid water binding capacity (Grosman et al. Acta Pharmacol. Toxicol., 1971, Vol. 30, pp. 458-464). Estrogen-induced thickening of the skin was assessed in albino hairless mice (Skh-1). The skin is topically treated for 3 days with 0.1 mL test material. The next day after the last dose, double skin-fold thickness is measured with an engineer's vernier calipers. This example compares the effects of 17-α-Estradiol and 17-β-Estradiol on skin thickening after 3 days of topical treatment.

[3] = test system: epidermis of albino hairless mice (Skh-1); assay: Thickness of the epidermis after 10 weeks of topical treatment; type: in vivo, mouse
[4] = test system: markers of reproductive function; conditions: humans; administered subcutaneously; cited from earlier work
[5] = Example 2, topical dose 0.1%, 10 Weeks
[6] = Example 3, topical dose 0.01%, 10 weeks

C[C@]12CC[C@@H]3c4ccc(O)cc4CC[C@H]3[C@@H]1CC[C@@H]2O [17-β-estradiol]
Repair Zone Depth (μm) ± SE ([1]; Example 1, topical dose 0.01%, 10 weeks, 0.1 mL three times per week): 57.4 ± 6.1 μm | Repair Zone Depth (μm) ± SE ([1]; Example 2, topical dose 0.1%, 6 Weeks): 46.3 ± 0.9 μm | Repair Zone Depth (μm) ± SE [1, 5]: 38.7 ± 2.5 μm | Repair Zone Depth (μm) ± SE ([1]; Example 3, topical dose 0.005%, 10 weeks): 45.2 ± 3.1 μm | Repair Zone Depth (μm) ± SE [1, 6]: 53.4 ± 2.1 μm | Repair Zone Depth (μm) ± SE ([1]; Example 3, topical dose 0.1%, 10 weeks): 68.2 ± 6.0 μm | Skin-Fold Thickness (mm) ± SE ([2]; topical dose 0.001%): 1.25 ± 0.08 mm | Skin-Fold Thickness (mm) ± SE ([2]; topical dose 0.01%): 1.62 ± 0.11 mm | Skin-Fold Thickness (mm) ± SE ([2]; topical dose 0.1%): 1.5 ± 0.13 mm | Epidermal Thickness (μm) ± SE ([3]; Example 5, topical dose 0.005%): 32.0 ± 1.2 μm | Epidermal Thickness (μm) ± SE ([3]; Example 5, topical dose 0.01%): 28.3 ± 1.8 μm | Epidermal Thickness (μm) ± SE ([3]; Example 5, topical dose 0.1%): 48.1 ± 2.9 μm

CC1=C(/C=C/C(C)=C/C=C/C(C)=C/C(=O)O)C(C)(C)CCC1 [All-trans-retinoic acid]
Repair Zone Depth (μm) ± SE ([1]; Example 1, topical dose 0.03%, 10 weeks, 0.1 mL three times per week): 72.0 ± 2.6 μm | Repair Zone Depth (μm) ± SE ([1]; Example 2, topical dose 0.03%, 6 Weeks): 44.5 ± 3.9 μm | Repair Zone Depth (μm) ± SE ([1]; Example 2, topical dose 0.03%, 10 Weeks): 59.0 ± 2.3 μm | Repair Zone Depth (μm) ± SE ([1]; Example 3, topical dose 0.03%, 10 weeks): 72.0 ± 3.3 μm | Epidermal Thickness (μm) ± SE ([3]; Example 5, topical dose 0.03%): 52.8 ± 3.6 μm

C[C@]12CCC3c4ccc(O)cc4CCC3C1CC[C@H]2O (stereo partly drawn) [17-α-estradiol]
Repair Zone Depth (μm) ± SE ([1]; Example 1, topical dose 0.50%, 10 weeks, 0.1 mL three times per week): 71.8 ± 3.0 μm | Repair Zone Depth (μm) ± SE ([1]; Example 2, topical dose 0.05%, 10 Weeks): 36.8 ± 2.4 μm | Repair Zone Depth (μm) ± SE [1, 5]: 44.3 ± 2.3 μm | Repair Zone Depth (μm) ± SE ([1]; Example 2, topical dose 0.5%, 6 Weeks): 44.6 ± 2.7 μm | Repair Zone Depth (μm) ± SE ([1]; Example 2, topical dose 0.5%, 10 Weeks): 51.6 ± 3.5 μm | Repair Zone Depth (μm) ± SE [1, 6]: 49.4 ± 3.7 μm | Repair Zone Depth (μm) ± SE ([1]; Example 3, topical dose 0.05%, 10 weeks): 34.3 ± 3.7 μm | Repair Zone Depth (μm) ± SE ([1]; Example 3, topical dose 0.5%, 10 weeks): 62.4 ± 4.2 μm | Skin-Fold Thickness (mm) ± SE ([2]; topical dose 0.01%): 1.16 ± 0.07 mm | Skin-Fold Thickness (mm) ± SE ([2]; topical dose 0.1%): 1.43 ± 0.06 mm | Skin-Fold Thickness (mm) ± SE ([2]; topical dose 0.5%): 1.52 ± 0.14 mm | Epidermal Thickness (μm) ± SE ([3]; Example 5, topical dose 0.05%): 29.3 ± 0.3 μm | Epidermal Thickness (μm) ± SE ([3]; Example 5, topical dose 0.1%): 37.3 ± 1.8 μm | Epidermal Thickness (μm) ± SE ([3]; Example 5, topical dose 0.5%): 42.9 ± 3.8 μm | biological activity on markers of reproductive function [4]: lacked biological activity
